The results in this text go back to ChEMBL document CHEMBL3044926, “Controlling powdery mildew on cucurbit rootstock seedlings in the greenhouse with fungicides and biofungicides” (Crop Prot, 2012).

Series [1] concerns Podosphaera xanthii. As to the kind of experiment: Fungicidal activity against Podosphaera xanthii (powdery mildew) inoculated in inter-specific squash hybrid Strong tosa (Cucurbita moschata x Cucurbita maxima) rootstock seedlings for 7 days prior to drug application assessed as disease severity on upper surface areas of cotyledonsat 98.2% in 11.99 g/L applied once measured 7 days post-drug dose under greenhouse conditions (water Rvb = 10.2%). Type of series: functional.

Series [2] relates to Cucurbita maxima x Cucurbita moschata. As to the kind of experiment: Phytotoxicity against inter-specific squash hybrid Cucurbita moschata x Cucurbita maxima (Strong tosa) rootstock seedlings. The class given is organism-based. The conditions noted are these: in vivo.
The subject of series [3] is Lagenaria siceraria. The series can be described thus: Phytotoxicity against Lagenaria siceraria 'Emphasis' rootstock seedlings assessed as stunting. The class given is organism-based. As to conditions: in vivo.
Series [4] concerns Podosphaera xanthii. The series can be described thus: Fungicidal activity against Podosphaera xanthii (powdery mildew) inoculated in Lagenaria siceraria Emphasis continuously after first drug application assessed as disease severity on upper surface areas of cotyledons at 98.2% in 11.99 g/L applied thrice at 5-days intervals measured 5 days after third application under green house conditions (water Rvb = 36.8%). The class given is functional.

The test system of series [5] is Podosphaera xanthii. The series can be described thus: Fungicidal activity against Podosphaera xanthii (powdery mildew) inoculated in inter-specific squash hybrid Strong tosa (Cucurbita moschata x Cucurbita maxima) rootstock seedlings for 7 days prior to drug application assessed as disease severity at 98.2% in 11.99 g/L applied once measured 7 days post-drug dose under greenhouse conditions (water Rvb = 17.5%). Type of series: functional.

Series [6] relates to Lagenaria siceraria. The series can be described thus: Phytotoxicity against Lagenaria siceraria 'Emphasis' rootstock seedlings. Type of series: organism-based. As to conditions: in vivo.
Series [7] has as its system Podosphaera xanthii. As to the kind of experiment: Fungicidal activity against Podosphaera xanthii (powdery mildew) inoculated in Lagenaria siceraria Emphasis continuously after first drug application assessed as disease severity at 98.2% in 11.99 g/L applied thrice at 5-days intervals measured 5 days after third application under green house conditions (water Rvb = 53.5%). The class given is functional.

Series [8] deals with Podosphaera xanthii. The series can be described thus: Fungicidal activity against Podosphaera xanthii (powdery mildew) inoculated in squash (Cucurbita pepo) rootstock seedlings continuously after first drug application assessed as incidence of disease symptoms on hypocotyls or upper or lower sides of cotyledons at 98.2% in 11.99 g/L applied thrice at 5-days intervals measured 5 days after third application under green house conditions (water Rvb = …. Type of series: functional.

Series [9] concerns Podosphaera xanthii. As to the kind of experiment: Fungicidal activity against Podosphaera xanthii (powdery mildew) inoculated in inter-specific squash hybrid Strong tosa (Cucurbita moschata x Cucurbita maxima) rootstock seedlings for 7 days prior to drug application assessed as incidence of disease symptoms on hypocotyls or upper or lower sides of cotyledons at 98.2% in 11.99 g/L applied once measured 7 days post-drug dose under greenhouse …. The class given is functional.

Series [10] relates to Podosphaera xanthii. As to the kind of experiment: Fungicidal activity against Podosphaera xanthii (powdery mildew) inoculated in Lagenaria siceraria Emphasis continuously after first drug application assessed as incidence of disease symptoms on hypocotyls or upper or lower sides of cotyledons at 98.2% in 11.99 g/L applied thrice at 5-days intervals measured 5 days after third application under green house conditions (water Rvb = 100%). The class given is functional.

Series [11] has as its system Podosphaera xanthii. As to the kind of experiment: Fungicidal activity against Podosphaera xanthii (powdery mildew) inoculated in inter-specific squash hybrid Strong tosa (Cucurbita moschata x Cucurbita maxima) rootstock seedlings for 7 days prior to drug application assessed as disease severity on lower surface areas of cotyledonsat 98.2% in 11.99 g/L applied once measured 7 days post-drug dose under greenhouse conditions (water Rvb = 5.1%). The class given is functional.

Series [12] concerns Podosphaera xanthii. As to the kind of experiment: Fungicidal activity against Podosphaera xanthii (powdery mildew) inoculated in Lagenaria siceraria Emphasis continuously after first drug application assessed as disease severity on lower surface areas of cotyledons at 98.2% in 11.99 g/L applied thrice at 5-days intervals measured 5 days after third application under green house conditions (water Rvb = 13.9%). The class given is functional.

Series [13] concerns Podosphaera xanthii. The series can be described thus: Fungicidal activity against Podosphaera xanthii (powdery mildew) inoculated in squash (Cucurbita pepo) rootstock seedlings continuously after first drug application assessed as disease severity at 98.2% in 11.99 g/L applied thrice at 5-days intervals measured 5 days after third application under green house conditions (water Rvb = 3.9%). The class given is functional.

Series [14] has as its system Cucurbita maxima x Cucurbita moschata. The series can be described thus: Phytotoxicity against inter-specific squash hybrid Cucurbita moschata x Cucurbita maxima (Strong tosa) rootstock seedlings assessed as stunting. Type of series: organism-based. As to conditions: in vivo.
Series [15] relates to Podosphaera xanthii. The series can be described thus: Fungicidal activity against Podosphaera xanthii (powdery mildew) inoculated in Lagenaria siceraria Emphasis continuously after first drug application assessed as incidence of disease symptoms on hypocotyls or upper or lower sides of cotyledons at 38.7% in 0.62 ml/L applied thrice at 5-days intervals measured 5 days after third application under green house conditions (water Rvb = 100%). Type of series: functional.

Series [16] concerns Cucurbita maxima x Cucurbita moschata. The series can be described thus: Phytotoxicity against inter-specific squash hybrid Cucurbita moschata x Cucurbita maxima (Strong tosa) rootstock seedlings assessed as stunted growth. The conditions noted are these: in vivo. Type of series: organism-based.
The test system of series [17] is Podosphaera xanthii. The series can be described thus: Fungicidal activity against Podosphaera xanthii (powdery mildew) inoculated in inter-specific squash hybrid Strong tosa (Cucurbita moschata x Cucurbita maxima) rootstock seedlings for 7 days prior to drug application assessed as disease severity at 38.7% in 0.62 ml/L applied once measured 7 days post-drug dose under greenhouse conditions (water Rvb = 17.5%). The class given is functional.

Series [18] has as its system Lagenaria siceraria. The series can be described thus: Phytotoxicity against Lagenaria siceraria 'Emphasis' rootstock seedlings assessed as seedlings with stunted growth. The class given is organism-based. The conditions noted are these: in vivo.
Series [19] relates to Podosphaera xanthii. As to the kind of experiment: Fungicidal activity against Podosphaera xanthii (powdery mildew) inoculated in inter-specific squash hybrid Strong tosa (Cucurbita moschata x Cucurbita maxima) rootstock seedlings continuously after first drug application assessed as disease severity at 38.7% in 0.62 ml/L applied thrice at 5-days intervals measured 5 days after third application under green house conditions (water Rvb = 4.2%). Type of series: functional.

For series [20], the system named is Podosphaera xanthii. As to the kind of experiment: Fungicidal activity against Podosphaera xanthii (powdery mildew) inoculated in inter-specific squash hybrid Strong tosa (Cucurbita moschata x Cucurbita maxima) rootstock seedlings for 7 days prior to drug application assessed as disease severity on lower surface areas of cotyledonsat 38.7% in 0.62 ml/L applied once measured 7 days post-drug dose under greenhouse conditions (water Rvb = 5.1%). The class given is functional.

The subject of series [21] is Podosphaera xanthii. As to the kind of experiment: Fungicidal activity against Podosphaera xanthii (powdery mildew) inoculated in squash (Cucurbita pepo) rootstock seedlings continuously after first drug application assessed as disease severity at 38.7% in 0.62 ml/L applied thrice at 5-days intervals measured 5 days after third application under green house conditions (water Rvb = 3.9%). The class given is functional.

Series [22] has as its system Podosphaera xanthii. The series can be described thus: Fungicidal activity against Podosphaera xanthii (powdery mildew) inoculated in inter-specific squash hybrid Strong tosa (Cucurbita moschata x Cucurbita maxima) rootstock seedlings for 7 days prior to drug application assessed as disease severity on upper surface areas of cotyledonsat 38.7% in 0.62 ml/L applied once measured 7 days post-drug dose under greenhouse conditions (water Rvb = 10.2%). Type of series: functional.

The subject of series [23] is Podosphaera xanthii. The series can be described thus: Fungicidal activity against Podosphaera xanthii (powdery mildew) inoculated in squash (Cucurbita pepo) rootstock seedlings continuously after first drug application assessed as incidence of disease symptoms on hypocotyls or upper or lower sides of cotyledons at 38.7% in 0.62 ml/L applied thrice at 5-days intervals measured 5 days after third application under green house conditions (water Rvb = …. The class given is functional.

The test system of series [24] is Podosphaera xanthii. The series can be described thus: Fungicidal activity against Podosphaera xanthii (powdery mildew) inoculated in Lagenaria siceraria Emphasis continuously after first drug application assessed as disease severity on upper surface areas of cotyledons at 38.7% in 0.62 ml/L applied thrice at 5-days intervals measured 5 days after third application under green house conditions (water Rvb = 36.8%). Type of series: functional.

Series [25] relates to Podosphaera xanthii. The series can be described thus: Fungicidal activity against Podosphaera xanthii (powdery mildew) inoculated in Lagenaria siceraria Emphasis continuously after first drug application assessed as disease severity on lower surface areas of cotyledons at 38.7% in 0.62 ml/L applied thrice at 5-days intervals measured 5 days after third application under green house conditions (water Rvb = 13.9%). The class given is functional.

In series [26] the test system is Cucurbita maxima x Cucurbita moschata. As to the kind of experiment: Phytotoxicity against inter-specific squash hybrid Cucurbita moschata x Cucurbita maxima (Strong tosa) rootstock seedlings assessed as seedlings with stunted growth. The class given is organism-based. As to conditions: in vivo.
For series [27], the system named is Podosphaera xanthii. As to the kind of experiment: Fungicidal activity against Podosphaera xanthii (powdery mildew) inoculated in Lagenaria siceraria Emphasis continuously after first drug application assessed as disease severity at 38.7% in 0.62 ml/L applied thrice at 5-days intervals measured 5 days after third application under green house conditions (water Rvb = 53.5%). The class given is functional.

The subject of series [28] is Lagenaria siceraria. As to the kind of experiment: Phytotoxicity against Lagenaria siceraria 'Emphasis' rootstock seedlings assessed as stunted growth. The conditions noted are these: in vivo. The class given is organism-based.
Series [29] has as its system Podosphaera xanthii. As to the kind of experiment: Fungicidal activity against Podosphaera xanthii (powdery mildew) inoculated in inter-specific squash hybrid Strong tosa (Cucurbita moschata x Cucurbita maxima) rootstock seedlings continuously after first drug application assessed as incidence of disease symptoms on hypocotyls or upper or lower sides of cotyledons at 38.7% in 0.62 ml/L applied thrice at 5-days intervals measured 5 days after …. The class given is functional.

For series [30], the system named is Podosphaera xanthii. The series can be described thus: Fungicidal activity against Podosphaera xanthii (powdery mildew) inoculated in inter-specific squash hybrid Strong tosa (Cucurbita moschata x Cucurbita maxima) rootstock seedlings for 7 days prior to drug application assessed as incidence of disease symptoms on hypocotyls or upper or lower sides of cotyledons at 38.7% in 0.62 ml/L applied once measured 7 days post-drug dose under greenhouse …. Type of series: functional.

For the compound `S1SSSSSSS1` [SULFUR], the Activity in series [1] is on record as 0.03%; in series [2], “Non-toxic”; in [3], “Non-toxic”; in [4], 3%; in series [5] it was 0.9%; in [6], “Non-toxic”. The Activity in series [7] was 3.7%; in [8] it was 0%; in series [9], 14.6%; in series [10] it was 34.9%; in series [11], 0.7%; in [12], 0.7%. Also, the figures for the Activity in [13] and in [14] were 0.02% and “Non-toxic”, respectively.
On to `CC(C)(C)C(O)(CCc1ccc(Cl)cc1)Cn1cncn1` (stereo not given) [TEBUCONAZOLE], for which the Activity in [15] came to 5.6%; in series [17], 0.5%; in series [18], 100%; in series [19], 0.005%; in [20], 0.2%; in series [21] it was 0%. In addition, the Activity in series [22] was determined as 0.2%; in series [23], 0%; in series [24] it was 0.5%; in series [25], 0%; in series [26], 71%; in [27] it was 0.7%. Also, the Activity in series [29] amounted to 0%; in series [30], 34.9%. In addition, the “inhibition (INH)” value in [16] and in [28] was 33% throughout.
